Source: patent US20230265438A1, “NUCLEIC ACIDS FOR INHIBITING EXPRESSION OF CNNM4 IN A CELL” (ASOCIACIÓN CENTRO DE INVESTIGACIÓN COOPERATIVA EN …, priority 2020, published 2023)
Oligonucleotides are written 5' to 3', each unit as a sugar letter and its base; * is a phosphorothioate linkage, no mark a phosphodiester; rarer units and linkages stand in square brackets, end groups in braces. Plain capitals give the bases only. {ST23(ps)x3-ST43} = conjugate of three ST23 units joined by phosphorothioates, then ST43, saccharide (preferably GalNAc) moiety; {VP} = (E)-vinylphosphonate; m = 2'-O-methyl; f = 2'-fluoro

Tests used:
ASGP-R complex = molecular target: T1, ASGP-R complex (Homo sapiens, UniProt P07306+P07307); conditions: cited from earlier work
T1 sequence (P07306 1-291): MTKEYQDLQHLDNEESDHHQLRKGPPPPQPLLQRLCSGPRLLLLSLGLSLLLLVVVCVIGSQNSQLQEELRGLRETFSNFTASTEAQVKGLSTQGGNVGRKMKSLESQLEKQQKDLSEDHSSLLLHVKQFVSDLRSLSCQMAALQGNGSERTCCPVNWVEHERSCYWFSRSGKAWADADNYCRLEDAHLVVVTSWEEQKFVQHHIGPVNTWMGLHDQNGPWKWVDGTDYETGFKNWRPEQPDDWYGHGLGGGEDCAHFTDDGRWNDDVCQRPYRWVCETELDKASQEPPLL
T1 sequence (P07307 1-311): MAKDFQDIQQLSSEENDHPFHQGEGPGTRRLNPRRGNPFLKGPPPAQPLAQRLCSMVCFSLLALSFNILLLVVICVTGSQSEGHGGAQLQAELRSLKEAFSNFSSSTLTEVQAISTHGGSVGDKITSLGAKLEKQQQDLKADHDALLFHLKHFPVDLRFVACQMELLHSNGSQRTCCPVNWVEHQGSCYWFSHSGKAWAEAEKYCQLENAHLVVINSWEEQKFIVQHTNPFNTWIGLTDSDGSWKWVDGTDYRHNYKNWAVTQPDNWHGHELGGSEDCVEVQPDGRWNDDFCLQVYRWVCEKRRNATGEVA

CNNM4 mRNA = CNNM4 mRNA in liver of wild-type mice after single subcutaneous dose (Examples 12-14); format: in vivo, mouse; conditions: wild-type C57BL/6 mice
Experimental: (§1) Five- to seven-week old male C57BL/6 mice were treated with a single dose of 1 or 5 mg siRNA conjugate per kg body weight by subcutaneous injection. Control groups received a subcutaneous injection with the vehicle PBS. Two weeks after the treatment, liver samples were collected from all mice and snap frozen. RNA was extracted from liver samples and CNNM4 and Actin mRNA levels were determined by Taqman qRT-PCR. Values obtained for CNNM4 mRNA were normalized to values generated for the housekeeping gene Actin and related to mean of untreated sample (ut) set at 1-fold target gene expression. Each bar represents mean value from 6 animals +/-SD.
Five- to seven-week old male C57BL/6 mice were treated with a single dose of 0.3 or 1 mg siRNA conjugate per kg body weight by subcutaneous injection. Control groups received a subcutaneous injection with the vehicle PBS. Two weeks after the treatment, liver samples were collected from all mice and snap frozen. RNA was extracted from liver samples and CNNM4 and Actin mRNA levels were determined by Taqman qRT-PCR. Values obtained for CNNM4 mRNA were normalized to values generated for the housekeeping gene Actin and related to mean of untreated sample (ut) set at 1-fold target gene expression. Each bar represents mean value from 6 animals +/-SD.
as §1, with “1” for “1 or 5”, “Five” for “Two”, “PBS treated cohort (PBS)” for “untreated sample (ut)”

primary hepatocytes [1] = assay: Lipid content in NASH-induced primary hepatocytes, BODIPY (Example 1); format: cell-based, mouse
Experimental: Primary hepatocytes from 3-month old wild-type (C57BL/6J) mice were isolated by perfusion with collagenase Type I (Worthington, USA). Briefly, animals were anesthetized with isoflurane (1.5% isoflurane in O2). […] Liver was perfused with buffer A (1x PBS, 5 mM EGTA, 37° C. and oxygenated) and the portal vein was cut. Next, liver was perfused with buffer B (1x PBS, 1 mM CaCl2 37° C. and oxygenated) to remove EGTA, and finally perfused with buffer C (1x PBS, 2 mM CaCl2, 0.65 BSA, collagenase type I, 37° C. and oxygenated). After buffer C perfusion, liver was separated from the resto of the body and placed into a petri dish with MEM (Gibco, USA). Gall bladder was carefully removed and, then, liver was mechanically disaggregated with forceps. […]
(§2) Primary hepatocytes cultured in high lipid content medium (OA) or methionine/choline deficient medium (MDMC) were fixed in 4% paraformaldehyde (10′, RT) in PBS and incubated with BODIPY 493/503 (Molecular Probes, Invitrogen) at 1 mg/ml (1h, RT). […] Quantification of lipid bodies was performed using Frida Software and represented as mean area per total number of cells.

murine hepatocytes = assay: Acetaminophen (APAP) induced cell death in hepatocytes, Tunel and Trypan Blue (Example 19); format: cell-based; conditions: 1 nM and 10 nM for 6 hours, 10 mM acetaminophen for 6 hours
Experimental: Freshly prepared murine hepatocytes were seeded in multi-well plates. Upon attachment, cells were incubated for 6 hours with 1 nM and 10 nM of EU404 or EU414 or left untreated. Thereafter, cells were cultured in serum-free culture medium (MEM) for 13 to 14 hours. Subsequently, they remained untreated (Ut) or 10 mM acetaminophen was added to the medium (APAP). 6 hours later, cells were stained by Tunel assay or Trypan Blue staining to determine the proportion of cells that were necrotic (Tunel positive) or had undergone cell death (Trypan Blue positive).

CNNM4 = CNNM4 expression in hepatocytes of the APAP experiment (Example 19); format: cell-based; conditions: murine hepatocytes, 1 nM and 10 nM for 6 hours; FIG. 25A
0.1% MCDD NASH model = assay: Rodent 0.1% MCDD NASH model: steatosis, ROS, macrophages, fibrosis, serum Mg2+ (Example 18); format: in vivo, mouse; conditions: 0.1% MCDD mice
Experimental: Three-month old male C57BL/6 mice were maintained on a diet deficient in choline with 0.1% methionine (0.1%MCDD) (A02082006i, Research Diets, Inc., New Jersey, USA) for six weeks or fed a standard chow (SC). After three weeks of 0.1% MCDD, mice were treated with […] CNNM4 siRNA conjugate (EU414) per body weight. Control groups fed with 0.1% MCD received 1 mg/kg non-targeting siRNA conjugate (EU400). Control mice fed with normal chow (SC) received the vehicle PBS at the same time point (three weeks). Liver samples were collected from all mice at the end of the study and cryopreserved by embedding in […] cryocompound (OCT) or fixed with formalin and embedded in paraffin for preparation of sections. Lipid bodies and reactive oxygen species (ROS) were detected in cryosections by staining with Sudan red and Dihydroxyetidium (DHE), respectively. Liver fibrosis was assessed in paraffine sections by staining of the smooth muscle cell marker alpha smooth muscle actin (αSMA) by immunohistochemistry, as well as by detection of collagen fibers by Sirius red staining. Macrophages were detected by immunohistochemistry, by F4/80 staining of paraffin-embedded liver sections. Blood samples were collected from all animals at the six-week time point for serum preparation. Serum Mg^2+ levels were then determined using the QuantiCrom™Magnesium Assay Kit (BioAssay Systems, USA).
These figures show quantifications of stained area percentages from each individual staining calculated using FIJI (https://imagej.net/Fiji.) in box and whisker plots with 5-95% percentile. n=5-7. (a.u. = arbitrary units).

THLE2 cells = assay: Lipid accumulation in NASH-induced human cells (THLE2) (Example 1); format: cell-based; conditions: FIG. 4A, 4B
Experimental: THLE-2 cells were purchased from ATCC (ATCC® CRL-2706TM). They were maintained on Bronchial Epithelial Growth Medium (BEGMTM, Lonza) supplemented with BEGM Bullet KitTM (Lonza) and 10%FBS. They were split with 0.05% trypsin-EDTA and collected in BEGM. After centrifugation at 123 g during 5 minutes, supernatant was discarded and pellet resuspended.
Cells were transfected with specific siRNAs (Hs n7o for human CNNM4 and Mm n7o for mouse CNNM4) at a final concentration of 100 nM using DharmaFECT 1 reagent (Dharmacon) following manufacturer’s protocol. DharmaFECT 1 and siRNA were diluted separately in 0% FBS/1% PSG MEM for 5′ at RT. Dilutions were then mixed and incubated 20′ at RT. siRNA transfection mixes were then added to cell suspension medium and replaced for fresh medium after 6 h.
Cells were transfected with a CNNM4 shRNA (SEQ ID NO: 454) by using lipofectamine® 3000 (Thermofisher) and following the protocol according manufacturer instructions. […]
as §2

primary hepatocytes [2] = assay: Intracellular magnesium levels in primary hepatocytes (Example 1); format: cell-based, mouse; conditions: NASH-induced primary hepatocytes; FIG. 7B
Experimental: Primary hepatocytes grown in glass coverslips were loaded with 2 µM Mag-S-Tz or 1 µM Mag-S-Tz-AM diluted REF (Gruskos et al., 2016. J. Am. Chem. Soc. 138 (44), pp 14639-14649) in 0% FBS/1% PSG medium and incubated at 37° C. and 5% CO2 during 30′ or 1 h respectively. After removing the dye-containing medium, a 30′ incubation in 0% FBS/1% PSG was performed. Coverslips were then washed in a 20 mM Tris-HCl, 2.4 mM CaCl2, 10 mM glucose, pH 7.4 buffer and mounted on a perfusion chamber with thermostat on a Eclipse TE 300-based microspectrofluorometer (Nikon, USA) and visualized with a 40x oil-immersion fluorescence. Intracellular Mg2+ levels were determines using the method described by Grynkiewicz (Grynkiewiz et al., 1985. J Biol Chem. 260(6):3440-50). The 340/380 nm excited light ratio was determined with a Delta system (Photon Technologies International, Princeton) and converted into Mg^2+ concentration from the standard equation: […]

CC(=O)N[C@H]1C(O)O[C@H](CO)[C@H](O)[C@@H]1O (stereo partly drawn) [GalNAc, 2-(Acetylamino)-2-deoxy-D-galactopyranose]
Affinity for the ASGP-R complex relative to D-Gal (ASGP-R complex): 50 fold

EU420: CNNM4 siRNA conjugate, duplex EU414A/EU420B; consists of SEQ ID NO: 237 and SEQ ID NO: 460 (chain 1 UGACAAAAGACACAAGAGU; chain 2 ACUCUUGUGUCUUUUGUCA; conjugate, chemistry not fully specified)
CNNM4 mRNA levels in the liver (CNNM4 mRNA; five weeks after single dose of 1 mg/kg s.c., FIG. 20): reduction of CNNM4 mRNA levels | CNNM4 mRNA levels in the liver (CNNM4 mRNA; two weeks after single dose of 0.3 or 1 mg/kg s.c., FIG. 19): reduction of CNNM4 mRNA levels

Magnesium
Lipid content (primary hepatocytes [1]; primary hepatocytes with CNNM4 overexpression, FIG. 5B): does not reduce lipid content

EU414: CNNM4 siRNA conjugate, duplex EU414A/EU414B; consists of SEQ ID NO: 237 and SEQ ID NO: 238 (chain 1 {VP}-mUfGmAfCmAfAmAfAmGfAmCfAmCfAmAfGmA*fG*mU; chain 2 {ST23(ps)x3-ST43}*mAmCmUmCmUmUfGfUfGmUmCmUmUmUmUmGmU*mC*mA)
Tripan Blue positive cells (cell death marker) (murine hepatocytes): reduction | Tunel positive cells (necrosis marker) (murine hepatocytes): reduction of Tunel positive cells | CNNM4 expression (CNNM4): reduction of CNNM4 expression | Liver steatosis (lipid bodies, Sudan red) (0.1% MCDD NASH model; 1 or 5 mg/kg at week 3, liver at week 6, FIG. 24A): reduction of liver steatosis | Reactive oxygen species (DHE staining) (0.1% MCDD NASH model; 1 or 5 mg/kg at week 3, liver at week 6, FIG. 24B): reduction of reactive oxygen species | Macrophage infiltration (F4/80 positive cells) in the liver (0.1% MCDD NASH model; 1 or 5 mg/kg at week 3, liver at week 6, FIG. 24C): reduction of macrophage infiltration | Liver fibrosis (αSMA, Sirius red) (0.1% MCDD NASH model; 1 or 5 mg/kg at week 3, liver at week 6, FIGS. 24D and 24E): reduction in liver fibrosis | Serum Mg2+ levels (0.1% MCDD NASH model; 1 or 5 mg/kg at week 3, serum at six-week time point, FIG. 24F): reduction of serum Mg^2+ levels | CNNM4 mRNA levels in the liver (CNNM4 mRNA; two weeks after single dose of 1 or 5 mg/kg s.c., FIG. 18): reduction of CNNM4 mRNA levels

CNNM4 shRNA: CNNM4 shRNA (SEQ ID NO: 454) (UCUCUGCCUUCAAGGAUGCGGACAAUGAG; listed as RNA, chemistry not fully specified)
Lipid content (THLE2 cells): returns to healthy levels

Nc1c[nH]c(=O)c2cc(-c3ccccc3)sc12 [7-amino-2-phenyl-5H-thieno[3,2-c]pyridin-4-one, reference compound]
Lipid content (primary hepatocytes [1]; NASH-induced primary hepatocytes, FIG. 3A, 5A, 7A): decreases its lipid content | Intracellular magnesium levels (primary hepatocytes [2]): accumulate magnesium
